According to US20130331326A1, “METHOD OF INDUCING HEMATOPOIETIC RECONSTRUCTION” (DUKE UNIVERSITY, priority 2011, published 2013):
“Also recorded” adds a separate entry of the source.

How the values were obtained:
[1] = tested on: C57B16 mice; test: Survival of C57B16 mice after 700 cGy TBI; format: in vivo, mouse
[2] = tested on: BM HSC and progenitor cells; test: Erlotinib pre-treatment of Tie2Cre;Bak1-/-;BaxFl/- mice, 300 cGy TBI, BM HSC and progenitor cell content; format: in vivo, mouse
Experimental: (§1) FIGS. 5A-5D. (FIG. 5A) Schematic diagram of irradiation and treatment of Tie2Cre;Bak1^−/−;Bax^Fl/− mice with erlotinib or water starting 3 days prior to TBI with evaluation of BM progenitor cell content and HSC repopulating capacity via competitive transplantation at +2 hours after TBI. […] A Student's 2-tailed t-test was used for all statistical analyses.
(§2) Competitive repopulation assays were also performed using donor C57B16 mice (CD45.2^+) that had been irradiated with 700 cGy TBI and gavaged daily with 10 μg/G erlotinib (Genentech, San Francisco, Calif.) or 150 μl water beginning on day 0 and continued through day +14. Donor BM cells were injected via tail vein into recipient B6.SJL mice (CD45.1^+) at a dose of 5×10^5 cells with a competing dose of host 1×10^5 BM MNCs. Tie2Cre;Bak1^−/−;Bax^FL/− mice were gavaged daily with 10 μg/G erlotinib or water starting day −3 and given 300 cGy TBI on day 0. Erlotinib administration continued until the timepoint of donor BM cell collection and analysis. Tie2Cre;Bak1^−/−;Bax^FL/− BM cells were injected via tail vein into recipient CD45.1^+ mice at a cell dose of 3×10^5 cells with a competing dose of host 1×10^5 CD45.1^+ cells. Multilineage hematopoietic reconstitution was measured in the PB of recipient mice by flow cytometry at 4, 8, and 12 weeks post-transplant. For survival studies with erlotinib administration, C57B16 mice were exposed to 700 cGy and then given 10 μg/G erlotinib or water starting day −3 and continuing daily through day +14.

[3] = tested on: BM hematopoietic stem and progenitor cells; test: Hematopoietic regeneration in C57B16 mice after 700 cGy TBI (progenitor assays, competitive repopulation); format: in vivo, mouse
Experimental: (§3) BM cells were collected into PBS (Cellgro, Manassas, Va.) with 10% fetal bovine serum (Hyclone, Logan, Utah) and 1% penicillin/streptomycin (GIBCO, Grand Island, N.Y.). Viable BM cells were quantified using Trypan Blue Stain (Lonza, Basel, Switzerland) to exclude apoptotic and dead cells. Cells were then incubated with anti-c-kit, anti-Sca-1, anti-lineage cocktail, anti-CD41, anti-CD48, and anti-CD150 antibodies (Biolegend and eBiosciences, San Diego, Calif.; BD, San Jose, Calif.) to measure ckit^+sca-1^+lin^− (KSL) progenitor cells or CD150′CD41^−CD48^−KSL (SLAM/KSL) as previously described (Kiel et al, Cell 121:1109-1121 (2005)). Colony forming cells (CFCs) and CFU-S12 assays were also performed to measure functional hematopoietic stem/progenitor cell content. For CFCs, either whole BM or cultured lineage−cells, or KSL cells were plated onto methylcellulose (StemCell Technologies, Vancouver, BC, Canada), and colonies were scored on day 14. 1×10^5 BM or 2×10^5 cells were collected from donor mice and injected via tail vein into recipient C57B16 mice that had been given 950 cGy TBI. At day +12 post-injection, spleens from recipient mice were harvested and stained with Bouin's fixative solution (Ricca Chemical Company, Arlington, Tex.), and colonies were counted as previously described (Till and MeRadiat. Res. 14:213-222 (1961)). Complete blood counts were performed on a HemaVet 950 (Drew Scientific, Dallas, Tex.).
as §2
Ten micrometer sections were cut using they CryoJane tape system (Instrumedics Inc, Hackensack, N.J., USA). Femurs were stained with hematoxylin and eosin or anti-mouse endothelial cell antibody (MECA-32) as previously described (Salter et al, Blood 113:2104-2107 (2009)) to assess BM cellularity and the BM vasculature after irradiation. Images were obtained using an Axiovert 200 microscope (Carl Zeiss Microscopy, Thornwood, N.Y.) or a Leica SP5 confocal microscope (Leica Microsystems Inc, Buffalo Grove, Ill.). Adobe Photoshop software (version 9.0.2, Adobe Systems, San JoSe, Calif.) was used to quantify positive signal as a measure of spatial distribution in the fields (Lehr et al, J. Histochem. Cytochem. 45:1559-1565 (1997), Lehr et al, J. Histochem. Cytochem. 47:119-126 (1999)).

[4] = tested on: BM lin- cells; test: Culture of BM lin- cells from VavCre;EGFRfl/fl or VavCre;EGFR+/+ mice with erlotinib; format: cell-based, mouse; conditions: TSF + 10 uM erlotinib, 72 hours
Experimental: Cell apoptosis and necrosis were analyzed by flow cytometry according to manufacturer's protocols with Annexin V-FITC and 7-AAD staining (BD, San Jose, Calif.). […] Cells were fixed and permeabilized with Fix Buffer I and Perm Buffer III (BD), and then stained with mouse anti-phospho-AKT-S473 PE (BD) or isotype control. Cell cycle analysis was performed by flow cytometric analysis modified from previous reports (Jordan et al, Exp. Hematol. 24:1347-1355 (1996), Chute et al, Hum. Gene Ther. 11:2515-2528 (2000), Sungartz et al, Blood 119:1308-1309 (2012)). Briefly, cells were fixed and permeabilized with 0.25% Saponin (Calbiochem, La Jolla, Calif.), 2.5% paraformaldehyde, 2% FBS in 1×PBS, and then labeled with Ki67-FITC and 7-AAD (BD). BM lin^− cells from VavCre;EGFR^+/+ or VavCre;EGER^fl/fl were cultured with TSF or TSF+10 μM erlotinib, or TSF following 300 cGy for 72 hours, and then collected for total cell counts and CFCs analysis.

[5] = tested on: EGFR; test: EGFR phosphorylation in BM KSL cells of erlotinib-treated Tie2Cre;Bak1-/-;BaxFl/- mice; format: in vivo, mouse; conditions: erlotinib-treated Tie2Cre;Bak1-/-;BaxFl/- mice vs water
Experimental: as §1

[6] = tested on: BM KSL cells; test: Culture of 300 cGy-irradiated BM KSL cells with BM ECs or TSF cytokines; CFC and CFU-S12 recovery; format: cell-based, mouse; conditions: screen of candidate proteins from cytokine array; data not shown
Experimental: as §3, with “Tex.). […]” for “Tex.).”

[7] = 700 cGy TBI, erlotinib 10 ug/G oral gavage daily through day +14, vs water

Q: Which results are given for `C#Cc1cccc(Nc2ncnc3cc(OCCOC)c(OCCOC)cc23)c1` [erlotinib]?
A: mice that survived beyond day +27 ([1]; 10 ug/G erlotinib oral gavage from 3 days prior to TBI for 14 days post-irradiation, water controls 53% at day +30): 0 of 15; mice that died by day +27 ([1]; 10 ug/G erlotinib via gavage from 3 days prior to TBI until day +14): 15 of 15; engraftment of myeloid cells, B cells and T cells at 12 weeks post-transplant ([2]; BM from erlotinib-treated Tie2Cre;Bak1-/-;BaxFl/- mice vs irradiated control): reduced engraftment; BM KSL cells and CFU-S12 following TBI ([2]; erlotinib from 3 days prior to 300 cGy TBI, +2 hours after irradiation, vs water): decreased BM KSL cells and decreased BM CFU-S12 content; also recorded: significantly decreased; decreased HSC content (4- to 12-week engraftment in competitively transplanted recipients) ([2]; erlotinib-treated, 300 cGy irradiated Tie2Cre;Bak1-/-;BaxFl/- donors vs water): more than 20 fold; HSC pool at day +14 post-TBI by competitive repopulation assay ([3]; 700 cGy TBI, erlotinib 10 ug/G oral gavage daily through day +14): essentially absent; BM CFCs and CFU-S12 at day +14 [3, 7]: significantly reduced; also recorded: persistent, significant depletion; BM cellularity at day +14 [3, 7]: persistent BM hypoplasia; BM HSCs and progenitor cells at day +7 post-TBI ([3]; 700 cGy TBI, erlotinib 10 ug/G oral gavage daily, same in control mice, data not shown): depletion of BM HSCs and progenitor cells; short-term and longer-term HSCs (4 week through 12 week donor cell engraftment) ([3]; 700 cGy TBI, erlotinib-treated donors vs control): marked reduction; hematopoietic reconstitution following total body irradiation ([3]; Example 1, administration of erlotinib to mice): marked delay; total cells and CFCs ([4]; EGFR+/+ BM lin- cells): decreased yield in total cells and CFCs; also recorded: significantly less total cells and CFCs; total cell expansion or CFC production ([4]; EGFRfl/fl BM lin- cells, vs cytokines alone): no significant effect; EGFR-phosphorylation in BM KSL cells [5]: decrease in EGFR-phosphorylation

B1: KC: keratinocyte-derived chemokine, candidate protein screened on irradiated BM KSL cells (protein, UniProt P12850 25-96, looked up)
Growth-regulated alpha protein: APIANELRCQCLQTMAGIHLKNIQSLKVLPSGPHCTQTEVIATLKNGREACLDPEAPLVQKIVQKMLKGVPK
Q: For B1, which “modulation of the activity of FL/- ECs or FL/+ ECs in promoting BM KSL cell recovery after irradiation” value [6] is on record?
A: none modulated the activity

Q: And the “recovery of BM KSL cells in vitro following irradiation” value [6]?
A: none of these proteins significantly altered the recovery

B2: IL5: candidate cytokine from BM serum array screened on irradiated BM KSL cells (protein, UniProt P04401 21-133, looked up)
Interleukin-5: MEIPMSTVVKETLTQLSAHRALLTSNETMRLPVPTHKNHQLCIGEIFQGLDILKNQTVRGGTVEMLFQNLSLIKKYIDRQKEKCGEERRRTRQFLDYLQEFLGVMSTEWAMEG
Q: Which “modulation of the activity of FL/- ECs or FL/+ ECs in promoting BM KSL cell recovery after irradiation” value [6] does the source give for B2 here?
A: none modulated the activity

Q: And the “recovery of BM KSL cells in vitro following irradiation” value [6]?
A: none of these proteins significantly altered the recovery

B3: IL17f: candidate cytokine from BM serum array screened on irradiated BM KSL cells (protein, UniProt Q7TNI7 29-161, looked up)
Interleukin-17F: RKNPKAGVPALQKAGNCPPLEDNTVRVDIRIFNQNQGISVPREFQNRSSSPWDYNITRDPHRFPSEIAEAQCRHSGCINAQGQEDSTMNSVAIQQEILVLRREPQGCSNSFRLEKMLLKVGCTCVKPIVHQAA
Q: What does the source list for B3?
A: modulation of the activity of FL/- ECs or FL/+ ECs in promoting BM KSL cell recovery after irradiation [6]: none modulated the activity; recovery of BM KSL cells in vitro following irradiation [6]: none of these proteins significantly altered the recovery

B4: IL17: candidate cytokine from BM serum array screened on irradiated BM KSL cells (protein, UniProt Q62386 26-158, looked up)
Interleukin-17A: AAIIPQSSACPNTEAKDFLQNVKVNLKVFNSLGAKVSSRRPSDYLNRSTSPWTLHRNEDPDRYPSVIWEAQCRHQRCVNAEGKLDHHMNSVLIQQEILVLKREPESCPFTFRVEKMLVGVGCTCVASIVRQAA
Q: Which results are given for B4?
A: modulation of the activity of FL/- ECs or FL/+ ECs in promoting BM KSL cell recovery after irradiation [6]: none modulated the activity; recovery of BM KSL cells in vitro following irradiation [6]: none of these proteins significantly altered the recovery
